Test results taken from ChEMBL document CHEMBL3227932, “Conformations, DNA binding parameters, and antileukemic activity of certain cytotoxic protoberberine alkaloids” (J Med Chem, 1979).
Converted amounts (≈) assume the structure as drawn.

Key:
Mus musculus [1] = test: Toxicity in mouse P388 cells allografted mouse at 400 mg/kg; assay type: organism-based; set-up: dose 400 mg/kg; settings: in vivo
Mus musculus [2] = test: Toxicity in mouse P388 cells allografted mouse at 100 mg/kg; assay type: organism-based; set-up: dose 100 mg/kg; settings: in vivo
Mus musculus [3] = test: Toxicity in mouse P388 cells allografted mouse at 6.25 mg/kg; assay type: organism-based; set-up: dose 6.25 mg/kg; settings: in vivo
P388 [4] = test: Antitumor activity against mouse P388 cells allografted in mouse at 3.13 mg/kg; assay type: functional
Mus musculus [5] = test: Toxicity in mouse P388 cells allografted mouse at 200 mg/kg; assay type: organism-based; set-up: dose 200 mg/kg; settings: in vivo
Mus musculus [6] = test: Toxicity in mouse P388 cells allografted mouse at 3.13 mg/kg; assay type: organism-based; set-up: dose 3.13 mg/kg; settings: in vivo
Mus musculus [7] = test: Toxicity in mouse P388 cells allografted mouse at 12.5 mg/kg; assay type: organism-based; set-up: dose 12.5 mg/kg; settings: in vivo
Mus musculus [8] = test: Toxicity in mouse P388 cells allografted mouse at 50 mg/kg; assay type: organism-based; set-up: dose 50 mg/kg; settings: in vivo
KB = test: Cytotoxicity against human KB cells; assay type: functional; settings: read-out: ED50 (the source's name)
P388 [9] = test: Antitumor activity against mouse P388 cells allografted in mouse at 12.5 mg/kg; assay type: functional
P388 [10] = test: Antitumor activity against mouse P388 cells allografted in mouse at 6.25 mg/kg; assay type: functional
P388 [11] = test: Antitumor activity against mouse P388 cells allografted in mouse at 25 mg/kg; assay type: functional
Mus musculus [12] = test: Toxicity in mouse P388 cells allografted mouse at 25 mg/kg; assay type: organism-based; set-up: dose 25 mg/kg; settings: in vivo
P388 [13] = test: Antitumor activity against mouse P388 cells allografted in mouse at 50 mg/kg; assay type: functional
P388 [14] = test: Antitumor activity against mouse P388 cells allografted in mouse at 100 mg/kg; assay type: functional
P388 [15] = test: Antitumor activity against mouse P388 cells allografted in mouse at 400 mg/kg; assay type: functional
P388 [16] = test: Antitumor activity against mouse P388 cells allografted in mouse at 200 mg/kg; assay type: functional

Compound	Activity (Mus musculus [1])	Activity (Mus musculus [2])	Activity (Mus musculus [3])	Activity (Mus musculus [5])	Activity (Mus musculus [7])	Activity (Mus musculus [8])	EC50 (KB) [µg/mL]	T/C (P388 [9])	T/C (P388 [10])	other results
COc1cc2c(cc1OC)-c1c(C)c3ccc(OC)c(OC)c3c[n+]1CC2.[Cl-]	Toxic	Toxic	Non-toxic	Toxic	Non-toxic	Toxic	4.76	107	102	T/C (P388 [4]): 105; Activity (Mus musculus [6]): Non-toxic
COc1cc2c[n+]3c(c(C)c2cc1OC)-c1cc2c(cc1CC3)OCO2.[I-]	Toxic	Toxic	Non-toxic	Toxic	Non-toxic		2.98	113	106	T/C (P388 [11]): 116; Activity (Mus musculus [12]): Non-toxic
COc1cc2c(cc1OC)[C@H](CO)[C@H]1c3cc4c(cc3CCN1C2)OCO4 (relative stereo)							> 100			
COc1cc2c(cc1OC)[C@@H](CO)[C@H]1c3cc4c(cc3CCN1C2)OCO4 (relative stereo)	Non-toxic	Non-toxic		Non-toxic		Non-toxic	2.65 (≈ 7.17 µM)			T/C (P388 [13]): 115; T/C (P388 [14]): 98; T/C (P388 [15]): 129; T/C (P388 [16]): 105
COc1cc2c(cc1OC)[C@H](C)[C@H]1c3cc4c(cc3CCN1C2)OCO4 (relative stereo)							> 100			
COc1cc2c(cc1OC)[C@@H](C)[C@H]1c3cc4c(cc3CCN1C2)OCO4 (relative stereo)							0.47 (≈ 1.33 µM)			
